Laboratory results: article PMC12040169 (PLOS Biology, 2025)

assay: in vitro; settings: human, hela cells, % viability

SMILES | viability at 28.5 h, 10 µM [%]
COCCc1noc(CC2CCN(c3nc(C)cc(C#N)n3)CC2)n1 [CBK304179] | 88.5
CSc1nnnn1-c1cccc(NC(=O)N2CCCN(C)CC2)c1 [CBK304180] | 78.1
Cc1cc(NC(=O)CN(C)c2ncccc2C#N)no1 [CBK304182] | 77.7
CSc1ccccc1C(=O)Nc1sc2c(c1C#N)CCN(C(C)=O)C2 [CBK304183] | 55.3
CC(C(=O)NC1CCCN(CC(F)(F)F)C1)n1cnc2ccccc21 (stereo not shown) [CBK304185] | 96.6
O=C1NC2(CCOCC2)C(=O)N1Cc1ncc(-c2cccs2)o1 [CBK304187] | 92
COCCn1c(SCC(=O)N2CCCc3ccccc32)nc(O)cc1=O [CBK304191] | 59.5
Cc1ccsc1C(=O)Nc1ncn(CC(=O)N2CCCCCC2)n1 [CBK304192] | 92.5
CCn1nc(C)c(CNC(=O)N(Cc2ccccn2)CC(C)C)c1C [CBK304193] | 92.1
Cc1nccn1C1CCCN(C(C)C(=O)NC2(C#N)CCCCC2)C1 (stereo not shown) [CBK304194] | 87.3
CCn1cc(CN(CCO)C(=O)c2cccc(C#N)c2C)cn1 [CBK304196] | 109
CCc1cc(=O)[nH]c(-c2ccc(N3CCCC3C(=O)N(C)C)nc2)n1 (stereo not shown) [CBK304197] | 89.2
Cc1nc(-c2cccnc2)[nH]c(=O)c1CCC(=O)N1CC2CCC1C2 (stereo not shown) [CBK304198] | 82.3
CCOC(=O)c1cnc2ccc(OC)cc2c1NCCN1CCOCC1 [CBK304199] | 87.7
COc1c(C)[nH]cc(CN(C)CCC(=O)Nc2cccc(F)c2)c1=O [CBK304201] | 90.5
CC(C)CC(CO)Nc1ncnc2ccc(S(C)(=O)=O)cc12 (stereo not shown) [CBK304203] | 107
CCOCC1CCN(C(=O)c2ncsc2Nc2ccccc2)C1 (stereo not shown) [CBK304204] | 117
Cc1cc(NC(=O)N(Cc2cnn(C)c2)CC(C)C)ccc1F [CBK304206] | 105
CC(Cn1cncn1)NC(=O)c1cccc(S(=O)(=O)NC2CCCC2)c1 (stereo not shown) [CBK304209] | 89
CCOC(=O)C1CCCN(C(=O)Cn2cnc(-c3cccs3)cc2=O)C1 (stereo not shown) [CBK304210] | 89.3
Cc1c(CN(C)CC(=O)Nc2ccc(Br)cc2Cl)cnn1C [CBK304214] | 86
CCc1ccc(C(O)CNC2CCN(c3nccs3)CC2)cc1 (stereo not shown) [CBK304215] | 94.3
O=C(Nc1cc(N2CCCS2(=O)=O)ccc1F)c1n[nH]c2ccccc12 [CBK304216] | 80.5

SMILES | viability at 28.5 h, 10 µM [%]
Cc1ccccc1Nc1nc(N)nc(CN2CCN(C)CC2)n1 [CBK304217] | 89.9
CC(C)Cn1cnc(S(=O)(=O)N2CCN(CC(=O)NC3CC3)CC2)c1 [CBK304223] | 95.8
CCn1cc(C2CN(S(=O)(=O)c3cc(C)c(OC)cc3C)CCO2)cn1 (stereo not shown) [CBK304225] | 84.9
CCn1cc(C2CN(S(=O)(=O)c3cccc(C)c3Cl)CCO2)cn1 (stereo not shown) [CBK304226] | 91.3
CCn1cc(C2CN(S(=O)(=O)c3cccc(C(C)C)c3)CCO2)cn1 (stereo not shown) [CBK304227] | 105
COCC(O)CN(C)C(=O)c1ccc(Oc2cccc(Br)c2)nc1 (stereo not shown) [CBK304229] | 94
O=C(c1cnn(-c2ccc(Cl)cc2Cl)c1)N1CCOCC1c1ncon1 (stereo not shown) [CBK304231] | 84.5
CCn1cc(C2CN(S(=O)(=O)c3ccccc3OC(F)F)CCO2)cn1 (stereo not shown) [CBK304234] | 106
COC(=O)C1CCN(C(=O)c2ccc(Oc3cccc(Br)c3)nc2)CC1 [CBK304235] | 103
O=C(c1cc(S(=O)(=O)N2CCOCC2)ccc1Cl)N1CCCC(CO)C1 (stereo not shown) [CBK304236] | 104
CCC(c1ccc2c(c1)CCO2)N1CCN(Cc2nc(C)no2)CC1 (stereo not shown) [CBK304237] | 90.3
CC1CNCCN1C(=O)c1cnn(-c2cccc(Cl)c2)c1 (stereo not shown) [CBK304238] | 94.1
CC(=O)Nc1cccc(NC(=O)CN(CCO)C2CCCCC2)c1 [CBK304239] | 85.7
CCN(CC)CCNC(=O)c1ccc(C(=O)O)c(C)n1 [CBK304248] | 85.9
Cc1nn(C)c(C)c1CNC(=O)N1CCN(CC(F)F)CC1 [CBK304249] | 102
CN(CC1CCCOC1)C(=O)c1ncsc1Nc1ccccc1 (stereo not shown) [CBK304250] | 94.4
Cc1ccccc1Nc1nc(CN2CCC3(CCCOC3)C2)cs1 (stereo not shown) [CBK304255] | 95
O=C(NCC1(c2cccc(Br)c2)CCOCC1)C1CC(O)CN1 (stereo not shown) [CBK304257] | 95.9
CCc1onc(C)c1C(=O)N1CCN(C2CCNC2)CC1 (stereo not shown) [CBK304258] | 96
Cc1cnn(C)c1CN1CCNC(=O)C1c1ccccc1C(F)(F)F (stereo not shown) [CBK304260] | 86.2
N#Cc1ccc(CN2CCCCC2c2[nH]ncc2C(N)=O)c(Cl)c1 (stereo not shown) [CBK304261] | 91.4
CC1=CCCN(C(=O)C23CCOCC2CN(c2ncc(F)cn2)C3)C1 (stereo not shown) [CBK304263] | 87.3
O=C(N1CCC=C(F)C1)C12CCOCC1CN(c1ncccn1)C2 (stereo not shown) [CBK304264] | 91.3

SMILES | viability at 28.5 h, 10 µM [%]
CC(C)CCc1csc(C2CN3CCCC3CO2)n1 (stereo not shown) [CBK304266] | 89.9
Cc1nnc2n1CCN(CC1CCCCO1)C2 (stereo not shown) [CBK304267] | 105
CC(C)Oc1cc(Br)cc(C(=O)N2CCC(C(=O)O)C2)c1 (stereo not shown) [CBK304268C] | 92.6
Cc1ccc2c(CC(=O)N3CCNCC3c3cnn(C)c3)coc2c1C (stereo not shown) [CBK304271C] | 87
CCCCN=C(NCCCn1cccn1)N1CCCN(C(C)=O)CC1 [CBK304273I] | 107
Cn1cc(C2CNCCN2C(=O)CCCc2csc3ccccc23)cn1 (stereo not shown) [CBK304274C] | 89.9
CC(C)NC(=O)Cn1nnc(-c2cccc(C(F)(F)F)c2)n1 [CBK304275] | 95.2
NC(=O)C1CCN(Cc2nc(-c3cccc(C(F)(F)F)c3)no2)CC1 [CBK304276] | 97.4
Cn1ccc(C(=O)NC2CCN(c3ncccn3)CC2)cc1=O [CBK304280] | 85.2
CC(CN(C)C(=O)c1cocn1)Oc1ccc(Cl)c(Cl)c1 (stereo not shown) [CBK304285] | 97.6
C#CCN(C1CCc2ccccc21)S(=O)(=O)c1cc(C(N)=O)n(C)c1 (stereo not shown) [CBK304287] | 95.1
COCCN(C(=O)c1cc2cc(C)ccc2s1)C1CCS(=O)(=O)C1 (stereo not shown) [CBK304289] | 87.3
CC1CCc2c(C(=O)N3CCC4(C3)NC(=O)NC4=O)csc2C1 (stereo not shown) [CBK304290] | 76.8
NS(=O)(=O)c1ccc2c(c1)N(Cc1nc(-c3ccco3)no1)CC2 [CBK304291] | 71.9
Cn1nc2c(cc1=O)CN(C(=O)c1cnc(C(C)(C)C)nc1)CC2 [CBK304293] | 96.5
O=C(NC1CCS(=O)(=O)C1)c1c[nH]c2ccccc2c1=O (stereo not shown) [CBK304295] | 88.7
Cc1cc(NC(=O)C2CCN(C(=O)CNc3ccccc3)CC2)no1 [CBK304297C] | 85.9
NC1CCN(C(=O)Cn2c3ccccc3c(=O)c3ccccc32)C1 (stereo not shown) [CBK304300C] | 94.3
CNCC1CCCN(Cc2cn(-c3ccc(Br)cc3)nc2C)C1 (stereo not shown) [CBK304301C] | 99.7
Cc1nn(C)c2ncc(S(=O)(=O)NCC(N)c3ccc(F)cc3F)cc12 (stereo not shown) [CBK304303C] | 99.1
CCOCCn1c(N2CCCC(C)C2)nc2c1c(=O)[nH]c(=O)n2C (stereo not shown) [CBK304304] | 85.1
COc1cc(CNC2CCCc3c2cnn3C)cc(OC)c1 (stereo not shown) [CBK304306C] | 82.4
Cc1c(C(=O)N(C)Cc2cc3ccccc3o2)nnn1C1CCNCC1 [CBK304307C] | 96.4

SMILES | viability at 28.5 h, 10 µM [%]
CCCN(C(=O)CCn1c(=O)oc2cc(Cl)ccc21)C1CCNC1 (stereo not shown) [CBK304311C] | 90.5
Cc1c(C(=O)N(C)Cc2nc(C(F)(F)F)cs2)nnn1C1CCNCC1 [CBK304315C] | 106
CC1(C)NC(=O)N(CC(O)Cn2c3ccccc3c3ccccc32)C1=O (stereo not shown) [CBK304318] | 86.8
Cn1cc(C2CNCCN2C(=O)c2csc3ccccc23)cn1 (stereo not shown) [CBK304324C] | 108
Cc1[nH]c(=O)[nH]c(=O)c1CC(=O)NCC1CCN(c2ccccc2F)C1 (stereo not shown) [CBK304325] | 99.7
Cn1nc2c(cc1=O)CN(C(=O)c1ccoc1)CC2 [CBK304330] | 119
Cc1nc(CC(=O)NCc2cccnc2N2CCOCC2)cs1 [CBK304331] | 98.7
CC(=O)N1CCc2c(sc(NC(=O)c3ccc(N(C)C)cc3)c2C#N)C1 [CBK304333] | 94.7
Cc1cc(C)cc(CNC(=O)N(CCCO)Cc2ccncc2)c1 [CBK304335] | 93.7
CC(C)CNC(=O)C1CCN(C(=O)c2cccc(F)c2)CC1 [CBK304338] | 112
Cc1nc(CC(=O)Nc2ccc(N3CCOCC3)cc2)cs1 [CBK304339] | 95.8
Cc1c(CN(C)CC(=O)Nc2cccc(C(F)(F)F)c2)cnn1C [CBK304341] | 85
Cn1nc2c(cc1=O)CN(C(=O)c1ccc3cc[nH]c3c1)CC2 [CBK304343] | 93.8
Cn1c(C(=O)NC2CCOC(C)(C)C2)cc2ccccc21 (stereo not shown) [CBK304344] | 91.7
CCS(=O)(=O)Nc1ccc(C(=O)N2CCN(c3ccccc3)CC2)cc1 [CBK304345] | 112
Cc1cccn2cc(CNC(=O)C(C)(C)C)nc12 [CBK304348] | 83.9
Cc1ccc(C(C)NC(=O)C2CCCN(S(C)(=O)=O)C2)c(C)c1 (stereo not shown) [CBK304349] | 94.1
CSCCC(NC(=O)CCc1ccccc1)c1nnc2ccccn12 (stereo not shown) [CBK304350] | 95.4
CC(C)Nc1ccc(C(=O)N2CCC(N3CCOCC3)CC2)cn1 [CBK304353] | 105
Cc1cc(C(=O)N2CCC(c3nccn3C)CC2)ccc1F [CBK304355] | 89.7
Cc1nn(CC(=O)N(C)Cc2cnccn2)c(=O)c2ccccc12 [CBK304356] | 97.6

same assay, conditions: human, hela cells, % viability, bulk resorufin, single well

SMILES | viability at 28.5 h, 10 µM [%]
CCCCN1C(=O)C(O)(c2c(C)nn(CCO)c2N)c2ccccc21 (stereo not shown) [CBK304286] | 116
